Publication PMC12458545, “Repurposing a Detrimental Antibody Epitope as Targeted Therapeutics for Sepsis and Rheumatoid Arthritis” (Research Square, 2025)
Entries after “also recorded” stand apart in the source; their conditions may differ.

How the values were obtained:
CLP-induced sepsis = test: CLP sepsis survival; assay type: in vivo, Balb/C mice
Experimental: (§1) Experimental sepsis was induced in Balb/C mice via cecal ligation and puncture (CLP) as previously described,[30],[37]. […] Briefly, mice were anesthetized intramuscularly with ketamine (75 mg/kg, Henry Schein Animal Health, Dublin, Ohio) and xylazine (10 mg/kg, Sigma-Aldrich) before a midline abdominal incision was made in the lower left abdomen. The cecum was ligated with a 4–0 silk suture at 50% of its length from the distal end, and punctured twice with a 21-gauge needle to induce moderate to severe sepsis. The cecum was returned to the abdominal cavity, and the incision was closed in layers. Approximately 30 min post-CLP, animals received imipenem/cilastatin (0.5 mg/mouse, Primaxin, Merck & Co., Inc.) and 1.0 mL of sterile saline for fluid resuscitation. Animals were randomized to control vehicle and experimental groups, administered P2 or P2–1 intraperitoneally at indicated doses and time points, and monitored for survival rates. To elucidate P2–1’s protective mechanisms, a separate group of Balb/C mice underwent CLP and received P2–1 (1.0 mg/kg) at 2 h and 20 h post-CLP. At 24 h post-CLP, animals were euthanized to collect blood and measure serum cytokines and chemokines using murine Cytokine Antibody Arrays.
All data were first assessed for normality using the Shapiro-Wilk test before applying the appropriate statistical analyses. All data are presented as mean ± standard error of the mean (SEM) unless otherwise specified. For comparison among multiple groups with non-normal (skewed) distribution, the Kruskal-Wallis ANOVA test followed by Dunn’s post-hoc test was used to evaluate statistical differences. Survival curves were analyzed using Kaplan-Meier method and compared using the nonparametric log-rank (Mantel-Cox) test. Statistical significance was defined as a P value less than 0.05.

[1] = system: sepsis-induced systemic cytokines and chemokines; test: serum cytokines/chemokines in CLP sepsis, Cytokine Antibody Arrays; assay type: in vivo, Balb/C mice; details: P2–1 0.1 or 1.0 mg/kg i.p. at 2 h and 20 h post-CLP; blood at 24 h
Experimental: as §1
(§2) Levels of cytokines and chemokines in mouse serum and joint tissue lysates, or human PBMC culture supernatants were determined using murine or human Cytokine Antibody Arrays (e.g., Cat. No. M0308003 or Cat. No. AAH-CYT-3–4, RayBiotech Inc., Norcross, GA, USA) as previously described,[30],[86],[87]. Serum samples were collected from mice at 24 h post-CLP. The soft tissue of the hindpaw and ankle joints was carefully collected using a previously described protocol. Briefly, 0.5 g of fresh soft tissue was cut into 3 mm pieces, and mixed with 400 μL of a hypertonic solution (500 mL PBS with 4.5 g NaCl and 2× protease inhibitor cocktail) in a 10 mL syringe. Mechanical extrusion, involving 30 rapid back-and-forth movements of the plunger, was then performed. The expelled extracellular fluid was collected, immediately aliquoted, and stored at −20°C until analysis. Cell-conditioned medium was collected from PBMC cultures after 16 h of stimulation. Arrays were performed according to the manufacturer’s protocol, followed by chemiluminescent detection and densitometric quantification as previously described,[30].

[2] = system: CAIA-induced mechanical allodynia; test: CAIA pain sensitivity, Von Frey filaments; assay type: in vivo, Balb/C mice; details: P2–1 i.p. daily Day 6 to Day 9; 50% paw withdrawal threshold, up-down method
Experimental: (§3) The CAIA model was performed in Balb/C mice (8–10 weeks old) as described previously. On Day 0, mice received i.p. injection of 2 mg anti-collagen II mAb cocktail (α-II, Chondrex, Inc., Redmond, WA). On Day 3, mice received i.p. injection of 30 μg LPS (Escherichia coli O111:B4; Sigma-Aldrich) to activate inflammation and synchronize arthritis onset. Mice were randomized, and therapeutic agents (P2–1 peptide or pCTS-L-neutralizing mAb2) were administered i.p. daily from Day 6 to Day 9. Arthritis severity was scored daily using a clinical scoring system [0 – 4 per paw: 0 = normal; 1 = mild redness and swelling in a single joint type (ankle, wrist, or individual digits); 2 = moderate redness and swelling affecting two joint types; 3 = severe redness and swelling involving across all three joint types; 4 = maximal redness and swelling of the entire paw that obscured joint definition].
Mechanical allodynia was assessed using Von Frey filaments (Stoelting Co., Wood Dale, IL) applied to the plantar surface of the hind paws as previously described,[82]. Mice were habituated in individual transparent enclosures on an elevated wire mesh platform. […] The “up-down” method determined the 50% paw withdrawal threshold, defined as the force required to elicit a withdrawal response in 50% of applications.

[3] = system: CAIA-induced joint tissue cytokines and chemokines; test: CAIA joint tissue inflammation, Cytokine Antibody Arrays; assay type: in vivo, Balb/C mice; details: P2–1, harvested Day 10; for joint tissue inflammation (array overall): representative arrays, four vehicle- and four P2-1-treated mice
Experimental: as §3, §2

Recombinant human HMGB1 = target: T1, Recombinant human HMGB1 (Homo sapiens, UniProt P09429); test: SPR (OpenSPR) binding to immobilized HMGB1; details: immobilized HMGB1, HBS-P buffer; Fig. 5A; Mean ± SEM, n = 2 independent experiments
T1 construct: made in house; host or cells: E. coli BL21 (DE3) pLysS
T1 sequence (P09429 1-215): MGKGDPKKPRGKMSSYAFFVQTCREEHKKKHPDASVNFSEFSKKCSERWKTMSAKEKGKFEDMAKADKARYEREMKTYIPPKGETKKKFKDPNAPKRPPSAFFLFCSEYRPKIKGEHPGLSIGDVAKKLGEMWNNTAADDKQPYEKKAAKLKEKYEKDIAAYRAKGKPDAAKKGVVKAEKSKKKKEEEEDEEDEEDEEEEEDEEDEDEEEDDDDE
Experimental: Binding kinetics between HMGB1 and P2–1 were measured using Nicoya Life Science gold nanoparticle-based OpenSPR technology (Kitchener, ON, Canada) as previously described,[84]. Recombinant human HMGB1 was immobilized onto a Carboxyl sensor chip, and P2–1 peptide was flowed over immobilized HMGB1 at various concentrations in HBS-P buffer (GE Healthcare). Response units were recorded over time, and binding affinity was estimated as the equilibrium dissociation constant KD using Trace Drawer Kinetic Data Analysis v.1.6.1 (Nicoya Life Science).

water solubility = assay type: physicochemical

54-TKVH(Nle)KSFLAFQTKT-69 [P2–1, water-soluble derivative of TN peptide P2 with Met to Norleucine and Cys to Ser substitutions]
animal survival (# of Survivors) (CLP-induced sepsis; Fig. 2C, P2–1 0.1 mg/kg, delayed administration (24 h and 48 h post-CLP), no asterisk): 60%
survival (CLP-induced sepsis; P2–1 0.1 mg/kg at 2 h, 20 h, 28 h, 44 h, and 52 h post-CLP, 0.1 mg/kg): conferred significant protection against lethal sepsis
animal survival (# of Survivors) (CLP-induced sepsis; P2–1 0.1 mg/kg i.p. at 2 h, 20 h, 28 h, 44 h, and 52 h post-CLP, P < 0.05 vs. control): 70%
survival (CLP-induced sepsis; P2–1 1.0 mg/kg, delayed, 24 h and 48 h post-CLP, 1 mg/kg): provided potent protection against lethal sepsis; also recorded: rescued mice from lethal sepsis
animal survival (# of Survivors) (CLP-induced sepsis; delayed, P2–1 1.0 mg/kg i.p. at 24 h and 48 h post-CLP, P < 0.05 vs. vehicle): 90%
sepsis-induced systemic inflammation [1]: significantly attenuated
serum BLC/CXCL13 [1]: significantly reduced
serum G-CSF [1]: significantly reduced
serum IL-6 [1]: significantly reduced
serum KC/GRO-α/CXCL1 [1]: significantly reduced
serum MCP-1/CCL2 [1]: significantly reduced
serum MIP-1γ/CCL9/10 [1]: significantly reduced
serum MIP-2/GRO-β/CXCL3 [1]: significantly reduced
serum sTNFRI [1]: significantly reduced
pain sensitivity (paw mechanical withdrawal threshold) [2]: significantly reduced CAIA-induced pain sensitivity by partially restoring paw mechanical withdrawal thresholds
joint tissue MIP-1γ/CCL9/10 [3]: reduced levels; also recorded: significant reduction
joint tissue VCAM-1 [3]: reduced levels; also recorded: significant reduction
joint tissue sTNFRI [3]: reduced levels; also recorded: significant reduction
joint tissue sTNFRII [3]: reduced levels; also recorded: significant reduction
joint tissue inflammation (array overall) [3]: significantly reduced CAIA-induced joint tissue inflammation
joint tissue inflammation (array overall) ([3]; listed as P2-1): reduction in various inflammatory cytokines and chemokines
Kd (Recombinant human HMGB1): 24.1 ± 9.35 nM
water solubility (water solubility): good water solubility
